Source: ChEMBL document CHEMBL1201862, “PubChem BioAssay data set” (2004)
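Cultured in 96-well plates, cells were exposed to test compound for 48 hours across five concentrations. At the GI50, growth is halved.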 Activity calls are given as the source filed them. Cut-off read from the data, not from the text of the source: active = GI50 up to about 1.1 µM and inactive = higher.

Assays:
Assay in all cases: NCI anticancer screen, dose series, 48 h
786-0 = tested on: 786-0
A549 = tested on: A549
COLO 205 = tested on: COLO 205
HCT-116 = tested on: HCT-116
HL-60 = tested on: HL-60
IGROV-1 = tested on: IGROV-1
LOX IMVI = tested on: LOX IMVI
MDA-MB-231 = tested on: MDA-MB-231
MDA-N = tested on: MDA-N
NCI-H23 = tested on: NCI-H23
NCI-H522 = tested on: NCI-H522
OVCAR-8 = tested on: OVCAR-8
PC-3 = tested on: PC-3
SF-295 = tested on: SF-295
SK-MEL-28 = tested on: SK-MEL-28
SK-MEL-2 = tested on: SK-MEL-2
SK-MEL-5 = tested on: SK-MEL-5
SW-620 = tested on: SW-620
T47D = tested on: T47D
TK-10 = tested on: TK-10

Measured: GI50

COc1cc(/C=C2\C[C@H]3[C@@H]4CC=C5C[C@@H](O)CC[C@]5(C)[C@H]4CC[C@]3(C)[C@H]2O)cc(OC)c1OC
inactive: 786-0 10.8 µM | A549 9.79 µM | COLO 205 7.31 µM | HCT-116 8.05 µM | HL-60 4.91 µM | IGROV-1 27.8 µM | LOX IMVI 8.53 µM | MDA-MB-231 11.4 µM | MDA-N 21.9 µM | NCI-H23 10.3 µM | NCI-H522 19.1 µM | OVCAR-8 19 µM | PC-3 16.6 µM | SF-295 4.84 µM | SK-MEL-28 25.2 µM | SK-MEL-2 12.7 µM | SK-MEL-5 6.28 µM | SW-620 26.2 µM | T47D 3.48 µM | TK-10 14.1 µM

c1ccc2cc(-c3cc(-c4cc(-c5ccc6ccccc6c5)on4)no3)ccc2c1
inactive: 786-0 > 100 µM | A549 > 100 µM | COLO 205 > 100 µM | HCT-116 > 100 µM | HL-60 > 100 µM | IGROV-1 > 100 µM | LOX IMVI > 100 µM | MDA-MB-231 > 100 µM | MDA-N > 100 µM | NCI-H23 > 100 µM | NCI-H522 > 100 µM | OVCAR-8 > 100 µM | PC-3 > 100 µM | SF-295 > 100 µM | SK-MEL-28 > 100 µM | SK-MEL-2 > 100 µM | SK-MEL-5 > 100 µM | SW-620 > 100 µM | T47D > 100 µM | TK-10 > 100 µM

O=C1Nc2c(Cl)cccc2/C1=N/Nc1ccccc1[N+](=O)[O-]
inactive: 786-0 10.1 µM | A549 21.8 µM | COLO 205 81.3 µM | HCT-116 29.7 µM | HL-60 70.1 µM | IGROV-1 1.9 µM | LOX IMVI 11.8 µM | MDA-MB-231 4.97 µM | MDA-N 25.6 µM | NCI-H23 13.5 µM | NCI-H522 4.45 µM | OVCAR-8 12.4 µM | PC-3 31.9 µM | SF-295 9.02 µM | SK-MEL-28 35.1 µM | SK-MEL-2 70.6 µM | SK-MEL-5 12.2 µM | SW-620 32.7 µM | T47D 22.2 µM | TK-10 11.5 µM

CC1(C)N=c2c(ncn2Cc2ccccc2)=C(C(N)=O)N1
inactive: 786-0 > 100 µM | A549 > 100 µM | COLO 205 > 100 µM | HCT-116 > 100 µM | HL-60 > 100 µM | IGROV-1 > 100 µM | LOX IMVI > 100 µM | MDA-MB-231 > 100 µM | MDA-N > 100 µM | NCI-H23 > 100 µM | NCI-H522 > 100 µM | OVCAR-8 > 100 µM | PC-3 > 100 µM | SF-295 > 100 µM | SK-MEL-28 > 100 µM | SK-MEL-2 > 100 µM | SK-MEL-5 > 100 µM | SW-620 > 100 µM | T47D > 100 µM | TK-10 > 100 µM

Oc1cc(-n2cccn2)c(O)cc1-n1cccn1
inactive: 786-0 16.6 µM | A549 > 86.9 µM | COLO 205 18.1 µM | HCT-116 26.2 µM | HL-60 6.43 µM | IGROV-1 54.6 µM | LOX IMVI 21 µM | MDA-MB-231 21.9 µM | MDA-N 17.6 µM | NCI-H23 43.7 µM | NCI-H522 11.5 µM | OVCAR-8 26.2 µM | PC-3 21.6 µM | SF-295 37.8 µM | SK-MEL-28 40.8 µM | SK-MEL-2 > 88.5 µM | SK-MEL-5 32.6 µM | SW-620 19.1 µM | T47D 22.3 µM | TK-10 26.8 µM

Cn1cnc(N2CCCC2)c(C#N)c1=S
inactive: 786-0 > 100 µM | A549 > 100 µM | COLO 205 > 100 µM | HCT-116 > 100 µM | HL-60 > 100 µM | IGROV-1 > 100 µM | LOX IMVI > 100 µM | MDA-MB-231 > 100 µM | MDA-N > 100 µM | NCI-H23 > 100 µM | NCI-H522 > 100 µM | OVCAR-8 > 100 µM | PC-3 > 100 µM | SF-295 > 100 µM | SK-MEL-28 > 100 µM | SK-MEL-2 > 100 µM | SK-MEL-5 > 100 µM | SW-620 > 100 µM | T47D > 100 µM | TK-10 > 100 µM
